Measurements taken from US20240279218A1 (Hoffmann-La Roche Inc., priority 2016, published 2024).
Where two headings read alike, the source gives them in different places.

Experiments:
h-GABA-A α5β3γ2 [1] = target: T1, h-GABA-A α5β3γ2 (Homo sapiens (Human), UniProt P18507+P31644); test: Two-electrode voltage clamp electrophysiology in Xenopus oocytes expressing GABAA receptors, modulation of GABA EC20 current; type: cell-based
Outline: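 Values are % modulation of an EC20 GABA response, derived point by point from the ratio of compound-exposed versus control current traces (extremum taken, 100×(fold−1)). Recordings used oocytes injected with human α5, β3, γ2 mRNA, clamped at −80 mV at room temperature, at least 3 oocytes each.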

h-GABA-A α5β3γ2 [2] = target: T1, h-GABA-A α5β3γ2; test: [3H]flumazenil competition binding assay, membranes of HEK293 cells expressing human GABAA receptors
Outline: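 Displacement of [3H]flumazenil from membranes of HEK293 cells transiently expressing human α5β3γ2 receptors, in Krebs-tris buffer pH 7.5. Incubation to equilibrium, 1 h at 4° C., then filtration and scintillation counting. Ki is the mean of two determinations.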

[3] = % modulation of GABA EC20 = 100*(Fold increase−1), Xenopus oocytes
[4] = Xenopus oocytes, GABA EC20, test compound at approx. 30 fold its Ki
[5] = displacement of [3H]flumazenil 0.5 nM, HEK293 cells expressing human receptors, mean of two determinations, read-out: Ki h-GABA-A α5β3γ2

Row | Structure (SMILES) | Efficacy (GABA) % (h-GABA-A α5β3γ2 [1]; [3]) [%] | Fold increase h-GABA-A α5β3γ2 oocyte (h-GABA-A α5β3γ2 [1]; [4]) | Ki (h-GABA-A α5β3γ2 [2]; [5]) [µM] | Efficacy (GABA) % (h-GABA-A α5β3γ2 [1]; reference compounds, % modulation of GABA EC20) [%] | Fold increase h-GABA-A α5β3γ2 oocyte (h-GABA-A α5β3γ2 [1]; reference compounds, GABAA α5β3γ2 overexpressing oocytes, GABA EC20) | Ki (h-GABA-A α5β3γ2 [2]; reference compounds, GABAA receptor α5β3γ2, read-out: Ki α5-human) [µM]
1 | Cc1ccc(-c2noc(C)c2COc2ccc(C(=O)NC3(C(F)(F)F)CC3)nn2)cn1 [Example 59, 6-((5-methyl-3-(6-methylpyridin-3-yl)isoxazol-4-yl)methoxy)-N-(1-(trifluoromethyl)cyclopropyl)pyridazine-3-carboxamide] | 93 | 1.93 | 0.0104 |  |  | 
2 | CNC(=O)c1ccc(OCc2c(-c3ccc(C)nc3)noc2C)nc1F [Example 136, 2-fluoro-N-methyl-6-((5-methyl-3-(6-methylpyridin-3-yl)isoxazol-4-yl)methoxy)pyridine-3-carboxamide] | 54 | 1.54 | 0.0148 |  |  | 
3 | Cc1ccc(-c2noc(C)c2COc2cnc(C(=O)NC3CCC(F)(F)CC3)cn2)cn1 [Example 86, N-(4,4-difluorocyclohexyl)-5-((5-methyl-3-(6-methyl-3-pyridyl)isoxazol-4-yl)methoxy)pyrazine-2-carboxamide] | 120 | 2.2 | 0.017 |  |  | 
4 | CCC[C@@H](CO)N1Cc2cc(OCc3c(-c4ccc(C)nc4)noc3C)ncc2C1=O [Example 13, (S)-2-(1-hydroxypentan-2-yl)-6-((5-methyl-3-(6-methylpyridin-3-yl)isoxazol-4-yl)methoxy)-1H-pyrrolo[3,4-c]pyridin-3(2H)-one] | 158 | 2.58 | 0.0144 |  |  | 
5 | Cc1ccc(-c2noc(C)c2COc2cnc(C(=O)N[C@H]3CC[C@](C)(O)CC3)cn2)cn1 [Example 105, N-(trans-4-hydroxy-4-methylcyclohexyl)-5-((5-methyl-3-(6-methylpyridin-3-yl)isoxazol-4-yl)methoxy)pyrazine-2-carboxamide] | 101 | 2.01 | 0.0227 |  |  | 
6 | Cc1onc(-c2ccccn2)c1COc1ccc(C(=O)NC2CCOCC2)cn1 [RO-272, reference compound] |  |  |  | −32 | 0.68 | 0.001
7 | Cc1ccc(-c2noc(C)c2COc2ccc(C(=O)N[C@H]3CCOC[C@@H]3O)cn2)cn1 [Example 127, N-((3R,4S)-3-hydroxytetrahydropyran-4-yl)-6-((5-methyl-3-(6-methyl-3-pyridyl)isoxazol-4-yl)methoxy)pyridine-3-carboxamide] | 50 | 1.5 | 0.0228 |  |  | 
8 | CCC[C@@H](CO)NC(=O)c1ccc(OCc2c(-c3ccc(N(C)C)nc3)noc2C)nc1 [Example 141, (S)-6-((3-(6-(dimethylamino)pyridin-3-yl)-5-methylisoxazol-4-yl)methoxy)-N-(1-hydroxypentan-2-yl)nicotinamide] | 243 | 3.43 | 0.0495 |  |  | 
9 | Cc1ccc(-c2noc(C)c2COc2ccc(C(=O)NC3COC3)nn2)cn1 [Example 35, 6-((5-methyl-3-(6-methylpyridin-3-yl)isoxazol-4-yl)methoxy)-N-(oxetan-3-yl)pyridazine-3-carboxamide] | 82 | 1.82 | 0.0044 |  |  | 
